Earlier results, collected in US11446274B2, “Use of dianhydrogalactitol or derivatives or analogs thereof for treatment of pediatric central nervous system malignancies” (DelMar Pharmaceuticals, Inc., priority 2015, dated 2022).
Like-named read-outs stand apart in the source and are kept apart here.

Assays:
[1] = molecular target: glycogen synthase kinase-3β (GSK-3β) (Homo sapiens, UniProt P49841); settings: cited from earlier work
[2] = test system: cells that are either MGMT-positive or MGMT-negative or MMR-proficient or MMR-deficient; settings: cited from earlier work

glycogen synthase kinase-3β (GSK-3β), sequence (P49841 whole entry, species assumed): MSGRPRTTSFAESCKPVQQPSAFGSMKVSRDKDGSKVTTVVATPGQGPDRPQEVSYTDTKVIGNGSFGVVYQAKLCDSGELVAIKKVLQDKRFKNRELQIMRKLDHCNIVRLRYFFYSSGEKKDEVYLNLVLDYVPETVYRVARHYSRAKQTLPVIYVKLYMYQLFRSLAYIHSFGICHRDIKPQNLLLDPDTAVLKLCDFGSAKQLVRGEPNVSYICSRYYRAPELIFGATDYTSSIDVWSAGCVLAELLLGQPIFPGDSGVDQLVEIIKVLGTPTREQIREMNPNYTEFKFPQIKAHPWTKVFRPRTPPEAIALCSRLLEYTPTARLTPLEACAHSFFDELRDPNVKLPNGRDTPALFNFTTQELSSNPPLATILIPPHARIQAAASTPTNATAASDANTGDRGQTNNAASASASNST

Compound	concentration for inhibition of GSK-3β [1] [nM]	sensitivity ([2]; MGMT Negative, MMR-Deficient)	sensitivity ([2]; MGMT Negative, MMR-Proficient)	sensitivity ([2]; MGMT Positive, MMR-Deficient)	sensitivity ([2]; MGMT Positive, MMR-Proficient)
CN1C(=O)/C(=C2/C(=O)Nc3ccccc32)c2ccccc21 [Meisoindigo, meisoindigo]	5 to 50	–	–	–	–
N.N.[Cl][Pt][Cl] [cisplatin]	–	Resistant	Sensitive	Resistant	Sensitive
